# Data taken from patent US11053226B2, “KRAS G12C inhibitors and methods of using the same” (Amgen Inc., priority 2018, dated 2021).
# Where two headings read alike, the source gives them in different places.
# Key:
# [1] = target: GDP-bound KRAS protein (aa 1-169), containing both G12C and C118A amino acid substitutions (Homo sapiens (Human), UniProt P01116, C118A/G12C); test: Coupled Nucleotide Exchange Assay; assay type: biochemical
# Procedure: (§1) For compounds in Table 9, the following assay conditions were employed:
# Coupled Nucleotide Exchange Assay:
# The assay plates were then read on a PerkinElmer EnVision Multilabel Reader, using AlphaScreen® technology, and data were analyzed using a 4-parameter logistic model to calculate IC50 values.
# [2] = test system: Phosphorylation of ERK1/2 in MIA PaCa-2 cells; test: Phospho-ERK1/2 MSD Assay; assay type: cell-based; conditions: MiaPaCa-2 cells
# Procedure: as §1
# Phospho-ERK1/2 MSD Assay:
# Sixteen hours prior to compound treatment, MIA PaCa-2 cells were seeded in 96-well cell culture plates at a density of 25,000 cells/well and incubated at 37° C., 5% CO2. […] Following compound treatment, cells were stimulated with 10 ng/mL EGF (Roche 11376454001) for 10 min, washed with ice-cold Dulbecco's phosphate-buffered saline, no Ca^2+ or Mg^2+ (ThermoFisher Scientific 14190144), and then lysed in RIPA buffer (50 mM Tris-HCl pH 7.5, 1% Igepal, 0.5% sodium deoxycholate, 150 mM NaCl, and 0.5% sodium dodecyl sulfate) containing protease inhibitors (Roche 4693132001) and phosphatase inhibitors (Roche 4906837001). […] Assay plates were read on a Meso Scale Discovery Sector Imager 6000, and data were analyzed using a 4-parameter logistic model to calculate IC50 values.
# [3] = test system: Phosphorylation of ERK1/2 in A549 cells; test: Phospho-ERK1/2 MSD Assay (A549); assay type: cell-based; conditions: read-out: pERK IC50 (4 h, A549), 4 h compound treatment
# [4] = read-out: Coupled Exchange IC50 (2 h), 2 h compound pre-incubation
# [5] = read-out: pERK IC50 (4 h, MiaPaCa-2), 4 h compound treatment
# [6] = Homo sapiens, MIA PaCa-2, 4 h, read-out: pERK IC50 (4 h, MiaPaCa-2), 4 h compound treatment
# [7] = read-out: Coupled Exchange IC50 (20 h), 20 h compound pre-incubation
# Sequence of GDP-bound KRAS protein (aa 1-169), containing both G12C and C118A amino acid substitutions (P01116 other isoform, or with tags, fused parts or gaps G12C/C118A): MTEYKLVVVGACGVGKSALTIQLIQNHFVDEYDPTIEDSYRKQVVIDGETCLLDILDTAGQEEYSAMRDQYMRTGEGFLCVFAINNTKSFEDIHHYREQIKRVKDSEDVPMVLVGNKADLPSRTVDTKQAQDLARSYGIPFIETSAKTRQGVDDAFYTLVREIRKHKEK
Structure (SMILES),"IC50 [1, 4]","IC50 ([3]; Homo sapiens, A549, 4 h)","IC50 [2, 6]",also measured
"C=CC(=O)N1CC(NC(=O)Cn2c(C)c(C(=O)N3CCc4ccccc4[C@H]3C)c3cc(Br)cc(C)c32)C1 (stereo in doubt) [Example 2-2, 2-(5-Bromo-2,7-dimethyl-3-(((1R)-1-methyl-3,4-dihydro-2(1H)-isoquinolinyl)carbonyl)-1H-indol-1-yl)-N-(1-(2-propenoyl)-3-azetidinyl)acetamide|2-(5-bromo-2,7-dimethyl-3-(((1S)-1-methyl-3,4-dihydro-2(1H)-isoquinolinyl)carbonyl)-1H-indol-1-yl)-N-(1-(2-propenoyl)-3-azetidinyl)acetamide]",250 nM,40.9 µM,,"IC50 [2, 5]: 2280 nM"
C=CC(=O)N1CC(NC(=O)Cn2c(C)c(C(=O)N3[C@H](C)Cc4c(OC)cccc4[C@H]3C)c3cc(Br)cc(C)c32)C1 (stereo in doubt) [Example 2-3],160 nM,51.7 µM,670 nM,
"C=CC(=O)N1CC(NC(=O)Cn2c(CC)c(C(=O)N3CCc4c(ccnc4OC)C3)c3cc(Cl)cc(C)c32)C1 [Example 1-1, 2-(5-Chloro-2-ethyl-3-((5-methoxy-3,4-dihydro-2,6-naphthyridin-2(1H)-yl)carbonyl)-7-methyl-1H-indol-1-yl)-N-(1-(2-propenoyl)-3-azetidinyl)acetamide]",,> 100 µM,90 nM,Coupled Exchange IC50 (5 min) ([1]; 5 min compound pre-incubation): 0.20 µM; Coupled Exchange IC50 (2 h) ([1]; 2 h compound pre-incubation): 0.07 µM
"C=CC(=O)N1CC(NC(=O)Cn2c(CC)c(C(=O)N3CCc4c(cccc4OC)C3)c3cc(Cl)cc(C)c32)C1 [Example 1-2, 2-(5-Chloro-2-ethyl-3-((5-methoxy-3,4-dihydro-2(1H)-isoquinolinyl)carbonyl)-7-methyl-1H-indol-1-yl)-N-(1-(2-propenoyl)-3-azetidinyl)acetamide]",60 nM,> 100 µM,130 nM,
"C=CC(=O)N1CC(NC(=O)Cn2c(CC)c(C(=O)N3CCN(c4ccc(C#N)cn4)C[C@H]3C)c3cc(Cl)cc(C)c32)C1 [Example 1-3, 2-(5-Chloro-3-(((2R)-4-(5-cyano-2-pyridinyl)-2-methyl-1-piperazinyl)carbonyl)-2-ethyl-7-methyl-1H-indol-1-yl)-N-(1-(2-propenoyl)-3-azetidinyl)acetamide]",150 nM,> 100 µM,1310 nM,
"C=CC(=O)N1CC(NC(=O)Cn2c(C3CC3)c(C(=O)N3CCc4c(ccnc4OC)C3)c3cc(Cl)cc(C)c32)C1 [Example 1-4, 2-(5-Chloro-2-cyclopropyl-3-((5-methoxy-3,4-dihydro-2,6-naphthyridin-2(1H)-yl)carbonyl)-7-methyl-1H-indol-1-yl)-N-(1-(2-propenoyl)-3-azetidinyl)acetamide]",80 nM,> 100 µM,150 nM,"IC50 ([1]; read-out: Coupled Exchange IC50 (5 min), 5 min compound pre-incubation): 270 nM; IC50 [1, 7]: 10 nM"
"C=CC(=O)N1CC(NC(=O)Cn2c(CC3CC3)c(C(=O)N3CCc4c(cccc4OC)C3)c3cc(Cl)cc(C)c32)C1 [Example 1-5, 2-(5-Chloro-2-(cyclopropylmethyl)-3-((5-methoxy-3,4-dihydro-2(1H)-isoquinolinyl)carbonyl)-7-methyl-1H-indol-1-yl)-N-(1-(2-propenoyl)-3-azetidinyl)acetamide]",80 nM,> 100 µM,150 nM,
"C=CC(=O)N1CC(NC(=O)Cn2c(C3CC3)c(C(=O)N3CCOC4(CCC4)C3)c3cc(Cl)cc(C)c32)C1 [Example 1-6, 2-(5-Chloro-2-cyclopropyl-7-methyl-3-(5-oxa-8-azaspiro[3.5]nonan-8-ylcarbonyl)-1H-indol-1-yl)-N-(1-(2-propenoyl)-3-azetidinyl)acetamide]",720 nM,> 100 µM,670 nM,
"C=CC(=O)N1CC(NC(=O)Cn2c(C)c(C(=O)N3CCc4c(cccc4OC)C3)c3cc(Br)cc(C)c32)C1 [Example 2-1, 2-(5-Bromo-3-((5-methoxy-3,4-dihydro-2(1H)-isoquinolinyl)carbonyl)-2,7-dimethyl-1H-indol-1-yl)-N-(1-(2-propenoyl)-3-azetidinyl)acetamide]",110 nM,> 100 µM,300 nM,"IC50 [1, 7]: 110 nM"
"C=CC(=O)N1CC(NC(=O)Cn2c(C)c(C(=O)N3CCc4ccccc4[C@H]3C)c3cc(Br)cc(C)c32)C1 [Example 2-2-1, 2-(5-Bromo-2,7-dimethyl-3-(((1R)-1-methyl-3,4-dihydro-2(1H)-isoquinolinyl)carbonyl)-1H-indol-1-yl)-N-(1-(2-propenoyl)-3-azetidinyl)acetamide]",160 nM,,,"IC50 [2, 5]: 560 nM; IC50 [3]: 47 µM"
"C=CC(=O)N1CC(NC(=O)Cn2c(C)c(C(=O)N3CCc4ccccc4[C@@H]3C)c3cc(Br)cc(C)c32)C1 [Example 2-2-2, 2-(5-Bromo-2,7-dimethyl-3-(((1S)-1-methyl-3,4-dihydro-2(1H)-isoquinolinyl)carbonyl)-1H-indol-1-yl)-N-(1-(2-propenoyl)-3-azetidinyl)acetamide]",420 nM,61 µM,3010 nM,
"C=CC(=O)N1CC(NC(=O)Cn2c(C3CC3)c(C(=O)N3CCc4c(cccc4OC)C3)c3cc(Br)ccc32)C1 [Example 3-2, 2-(5-Bromo-2-cyclopropyl-3-((5-methoxy-3,4-dihydro-2(1H)-isoquinolinyl)carbonyl)-1H-indol-1-yl)-N-(1-(2-propenoyl)-3-azetidinyl)acetamide]",140 nM,52.6 µM,600 nM,
"C=CC(=O)N1CC(N(C)C(=O)Cn2c(CC)c(C(=O)N3CCc4c(ccnc4OC)C3)c3cc(Cl)cc(C)c32)C1 [Example 4-1, 2-(5-Chloro-2-ethyl-3-((5-methoxy-3,4-dihydro-2,6-naphthyridin-2(1H)-yl)carbonyl)-7-methyl-1H-indol-1-yl)-N-methyl-N-(1-(2-propenoyl)-3-azetidinyl)acetamide]",120 nM,> 100 µM,130 nM,
"C=CC(=O)N1CC(N(C)C(=O)Cn2c(CC)c(C(=O)N3CCc4c(cccc4OC)C3)c3cc(Cl)cc(C)c32)C1 [Example 4-2, 2-(5-Chloro-2-ethyl-3-((5-methoxy-3,4-dihydro-2(1H)-isoquinolinyl)carbonyl)-7-methyl-1H-indol-1-yl)-N-methyl-N-(1-(2-propenoyl)-3-azetidinyl)acetamide]",150 nM,> 100 µM,210 nM,
C=CC(=O)N1CC(NC(=O)Cn2cc(C(=O)N3CC4(CCN4c4ccccn4)C3)c3cc(Br)ccc32)C1 [Example 148],,> 100 µM,50200 nM,
C=CC(=O)N1CC(NC(=O)Cn2cc(C(=O)NCCOc3ccccc3C)c3cc(Br)ccc32)C1 [Example 156],,> 100 µM,53400 nM,
C=CC(=O)N1CC(NC(=O)Cn2cc(C(=O)N3CCc4c(OC)ccc(Br)c4C3)c3cc(Br)ccc32)C1 [Example 157],,42.5 µM,53600 nM,
C=CC(=O)N1CC(NC(=O)Cn2cc(C(=O)N3CCN(c4ccc(CN(C)C)cn4)CC3)c3cc(Br)ccc32)C1 [Example 159],,> 100 µM,57400 nM,
C=CC(=O)N1CC(NC(=O)Cn2cc(C(=O)N3CCN(c4ccc([N+](=O)[O-])cc4)CC3)c3cc(Br)ccc32)C1 [Example 166],,> 100 µM,> 100000 nM,
C=CC(=O)N1CC(NC(=O)Cn2cc(C(=O)NCCC(=O)Nc3ccccc3CC)c3cc(Br)ccc32)C1 [Example 167],,> 100 µM,> 100000 nM,
C=CC(=O)N1CC(NC(=O)Cn2cc(C(=O)NCCc3c(OC)ccc4ccccc34)c3cc(Br)ccc32)C1 [Example 168],,> 100 µM,> 100000 nM,
C=CC(=O)N1CC(NC(=O)Cn2cc(C(=O)NCCC(=O)Nc3cc(C)ccc3C)c3cc(Br)ccc32)C1 [Example 169],,> 100 µM,> 100000 nM,
C=CC(=O)N1CC(NC(=O)Cn2cc(C(=O)NCCc3nc4c(s3)CCCC4)c3cc(Br)ccc32)C1 [Example 171],,> 100 µM,> 100000 nM,
C=CC(=O)N1CC(NC(=O)Cn2cc(C(=O)NCCCc3nc(C)cs3)c3cc(Br)ccc32)C1 [Example 172],,> 100 µM,> 100000 nM,
C=CC(=O)N1CC(NC(=O)Cn2cc(C(=O)NCCN(C)c3cccc(C)c3)c3cc(Br)ccc32)C1 [Example 173],,> 100 µM,> 100000 nM,
C=CC(=O)N1CC(NC(=O)Cn2cc(C(=O)NCCc3nc4ccccc4n3C)c3cc(Br)ccc32)C1 [Example 174],,> 100 µM,> 100000 nM,
C=CC(=O)N1CC(NC(=O)Cn2cc(C(=O)On3nnc4cccnc43)c3cc(Br)ccc32)C1 [Example 175],,> 100 µM,> 100000 nM,
C=CC(=O)N1CC(NC(=O)Cn2c(C)c(C(=O)NCCC(=O)Nc3ccccc3CC)c3cc(Br)ccc32)C1 [Example 179],,> 100 µM,> 100000 nM,
